Laboratory results reported in patent US5698411A, “Method for determining activity of enzymes in metabolically active whole cells” (priority 1995, dated 1997).
Numbered stars: 1 amine (or outer) side, 2 acyl side, 3 side chain; on linkers, the order of the positions; unused ones are H or OH. Bridge positions count the residues as written; N and C are the ends. Peptide text beside a SMILES is read from it. I, II: the chains in the order shown. Rhodamine110 = O=C1OC2(c3ccc(N[*:1])cc3Oc3cc(N[*:2])ccc32)c2ccccc21

Experiments:
Type in all cases: cell-based, human
[1] = test system: lymphocytes; test: enzyme activity with fluorogenic substrate, normal lymphocytes (Table 3A)
[2] = test system: granulocytes; test: enzyme activity with fluorogenic substrate, normal granulocytes (Table 3A)
[3] = test system: metabolically active whole cell; test: substrate panel in normals and HIV + patients, TB infection (Table 4); set-up: unit not given here
Description: A panel of assay compounds are assembled consisting of Ala-aminopeptidase and Lys-aminopeptidase, Dipeptidyl peptidase IV (Ala-Ala)2 rhodamine 110 and Cathepsin D to indicate possible TB infection in AIDS related cases.
A panel Of enzymatic substrates is performed consisting of Ala-aminopeptidase and Lys-aminopeptidase, Dipeptidyl peptidase IV (Ala-Ala)2 rhodamine 110 and Cathepsin D to indicate possible TB infection in AIDS related cases.

[4] = test system: lymphocytes; test: aberrant enzyme activities in febrile children, lymphocytes (Table 7)
[5] = test system: monocytes; test: aberrant enzyme activities in febrile children, monocytes (Table 7)
[6] = test system: granulocytes; test: aberrant enzyme activities in febrile children, granulocytes (Table 7)
[7] = test system: monocytes; test: enzyme activity with fluorogenic substrate, normal monocytes (Table 3A)

CC(C)[C@H](N)C(=O)N[C@@H](CCCCN)C(=O)Nc1ccc2c(c1)Oc1cc(NC(=O)[C@H](CCCCN)NC(=O)[C@@H](N)C(C)C)ccc1C21OC(=O)c2ccccc21 [VK, (Val-Lys)2 Rho 110]
22.7: MEAN DELTA FL ([3]; NORMALS)
5.10: NORMAL LEUKOCYTE ENZYME ACTIVITY GRANS Mean [2]
+ (>0.25 Increase over normal range): aberrant enzyme activity, LYMPHS ([4]; P99 Viral Syndrome) | aberrant enzyme activity, MONOS ([5]; P99 Viral Syndrome) | aberrant enzyme activity, MONOS ([5]; P103 Viral Syndrome) | aberrant enzyme activity, GRANS ([6]; P97 Pyelonephritis) | aberrant enzyme activity, GRANS ([6]; P99 Viral Syndrome)
- (>0.25 Decrease over normal range): aberrant enzyme activity, LYMPHS ([4]; P95 Viral Syndrome) | aberrant enzyme activity, MONOS ([5]; P88 Enteritis) | aberrant enzyme activity, MONOS ([5]; P89 Viral Stomatitis) | aberrant enzyme activity, MONOS ([5]; P102 UTI) | aberrant enzyme activity, GRANS ([6]; P88 Enteritis) | aberrant enzyme activity, GRANS ([6]; P89 Viral Stomatitis) | aberrant enzyme activity, GRANS ([6]; P95 Viral Syndrome)
.smallcircle.: aberrant enzyme activity, LYMPHS ([4]; P88 Enteritis) | aberrant enzyme activity, LYMPHS ([4]; P89 Viral Stomatitis) | aberrant enzyme activity, LYMPHS ([4]; P92 Adenitis) | aberrant enzyme activity, LYMPHS ([4]; P96 Viral Syndrome) | aberrant enzyme activity, LYMPHS ([4]; P97 Pyelonephritis) | aberrant enzyme activity, LYMPHS ([4]; P101 Fever -- Unknown Origin) | aberrant enzyme activity, LYMPHS ([4]; P102 UTI) | aberrant enzyme activity, LYMPHS ([4]; P103 Viral Syndrome) | aberrant enzyme activity, MONOS ([5]; P92 Adenitis) | aberrant enzyme activity, MONOS ([5]; P95 Viral Syndrome) | aberrant enzyme activity, MONOS ([5]; P96 Viral Syndrome) | aberrant enzyme activity, MONOS ([5]; P97 Pyelonephritis) | aberrant enzyme activity, MONOS ([5]; P101 Fever -- Unknown Origin) | aberrant enzyme activity, GRANS ([6]; P92 Adenitis) | aberrant enzyme activity, GRANS ([6]; P96 Viral Syndrome) | aberrant enzyme activity, GRANS ([6]; P101 Fever -- Unknown Origin) | aberrant enzyme activity, GRANS ([6]; P102 UTI) | aberrant enzyme activity, GRANS ([6]; P103 Viral Syndrome)
1.87: NORMAL LEUKOCYTE ENZYME ACTIVITY LYMPHS Mean [1]
17.7: MEAN DELTA FL ([3]; HIV + PATIENTS)

C[C@H](NC(=O)[C@@H](N)CCCCN)C(=O)Nc1ccc2c(c1)Oc1cc(NC(=O)[C@H](C)NC(=O)[C@@H](N)CCCCN)ccc1C21OC(=O)c2ccccc21 [KA-M, (Lys-Ala)2 Rho 110]
0.55: NORMAL LEUKOCYTE ENZYME ACTIVITY LYMPHS Mean [1]
- (>0.25 Decrease over normal range): aberrant enzyme activity, MONOS ([5]; P88 Enteritis, listed as Lys/Ala-M) | aberrant enzyme activity, MONOS ([5]; P89 Viral Stomatitis, listed as Lys/Ala-M) | aberrant enzyme activity, MONOS ([5]; P92 Adenitis, listed as Lys/Ala-M) | aberrant enzyme activity, MONOS ([5]; P95 Viral Syndrome, listed as Lys/Ala-M) | aberrant enzyme activity, MONOS ([5]; P96 Viral Syndrome, listed as Lys/Ala-M) | aberrant enzyme activity, MONOS ([5]; P97 Pyelonephritis, listed as Lys/Ala-M) | aberrant enzyme activity, MONOS ([5]; P103 Viral Syndrome, listed as Lys/Ala-M)
+ (>0.25 Increase over normal range): aberrant enzyme activity, LYMPHS ([4]; P99 Viral Syndrome, listed as Lys/Ala-M)
.smallcircle.: aberrant enzyme activity, LYMPHS ([4]; P88 Enteritis) | aberrant enzyme activity, LYMPHS ([4]; P89 Viral Stomatitis) | aberrant enzyme activity, LYMPHS ([4]; P92 Adenitis) | aberrant enzyme activity, LYMPHS ([4]; P95 Viral Syndrome) | aberrant enzyme activity, LYMPHS ([4]; P96 Viral Syndrome) | aberrant enzyme activity, LYMPHS ([4]; P97 Pyelonephritis) | aberrant enzyme activity, LYMPHS ([4]; P102 UTI) | aberrant enzyme activity, LYMPHS ([4]; P103 Viral Syndrome) | aberrant enzyme activity, MONOS ([5]; P99 Viral Syndrome) | aberrant enzyme activity, MONOS ([5]; P102 UTI) | aberrant enzyme activity, GRANS ([6]; P88 Enteritis) | aberrant enzyme activity, GRANS ([6]; P89 Viral Stomatitis) | aberrant enzyme activity, GRANS ([6]; P92 Adenitis) | aberrant enzyme activity, GRANS ([6]; P95 Viral Syndrome) | aberrant enzyme activity, GRANS ([6]; P96 Viral Syndrome) | aberrant enzyme activity, GRANS ([6]; P97 Pyelonephritis) | aberrant enzyme activity, GRANS ([6]; P99 Viral Syndrome) | aberrant enzyme activity, GRANS ([6]; P102 UTI) | aberrant enzyme activity, GRANS ([6]; P103 Viral Syndrome)

O=C1OC2(c3ccc(OC4O[C@H](CO)[C@H](O)[C@H](O)[C@H]4O)cc3Oc3cc(OC4O[C@H](CO)[C@H](O)[C@H](O)[C@H]4O)ccc32)c2ccccc21 (stereo partly drawn) [GALAC, (D-galactose)2 fluorescein]
0.38: NORMAL LEUKOCYTE ENZYME ACTIVITY LYMPHS Mean [1]
.smallcircle.: aberrant enzyme activity, LYMPHS ([4]; P88 Enteritis) | aberrant enzyme activity, LYMPHS ([4]; P89 Viral Stomatitis) | aberrant enzyme activity, LYMPHS ([4]; P92 Adenitis) | aberrant enzyme activity, LYMPHS ([4]; P97 Pyelonephritis) | aberrant enzyme activity, LYMPHS ([4]; P103 Viral Syndrome) | aberrant enzyme activity, MONOS ([5]; P88 Enteritis) | aberrant enzyme activity, MONOS ([5]; P89 Viral Stomatitis) | aberrant enzyme activity, MONOS ([5]; P92 Adenitis) | aberrant enzyme activity, MONOS ([5]; P97 Pyelonephritis) | aberrant enzyme activity, MONOS ([5]; P103 Viral Syndrome) | aberrant enzyme activity, GRANS ([6]; P88 Enteritis) | aberrant enzyme activity, GRANS ([6]; P89 Viral Stomatitis) | aberrant enzyme activity, GRANS ([6]; P92 Adenitis) | aberrant enzyme activity, GRANS ([6]; P97 Pyelonephritis) | aberrant enzyme activity, GRANS ([6]; P103 Viral Syndrome)

O=C1OC2(c3ccc(OP(=O)(O)O)cc3Oc3cc(OP(=O)(O)O)ccc32)c2ccccc21 [DPO4, (PO4)2 fluorescein]
+ (>0.25 Increase over normal range): aberrant enzyme activity, MONOS ([5]; P89 Viral Stomatitis) | aberrant enzyme activity, MONOS ([5]; P92 Adenitis) | aberrant enzyme activity, MONOS ([5]; P95 Viral Syndrome) | aberrant enzyme activity, MONOS ([5]; P101 Fever -- Unknown Origin) | aberrant enzyme activity, MONOS ([5]; P103 Viral Syndrome) | aberrant enzyme activity, GRANS ([6]; P89 Viral Stomatitis) | aberrant enzyme activity, GRANS ([6]; P92 Adenitis) | aberrant enzyme activity, GRANS ([6]; P101 Fever -- Unknown Origin) | aberrant enzyme activity, GRANS ([6]; P103 Viral Syndrome)
.smallcircle.: aberrant enzyme activity, LYMPHS ([4]; P88 Enteritis) | aberrant enzyme activity, LYMPHS ([4]; P89 Viral Stomatitis) | aberrant enzyme activity, LYMPHS ([4]; P92 Adenitis) | aberrant enzyme activity, LYMPHS ([4]; P95 Viral Syndrome) | aberrant enzyme activity, LYMPHS ([4]; P97 Pyelonephritis) | aberrant enzyme activity, LYMPHS ([4]; P99 Viral Syndrome) | aberrant enzyme activity, LYMPHS ([4]; P101 Fever -- Unknown Origin) | aberrant enzyme activity, LYMPHS ([4]; P102 UTI) | aberrant enzyme activity, LYMPHS ([4]; P103 Viral Syndrome) | aberrant enzyme activity, MONOS ([5]; P88 Enteritis) | aberrant enzyme activity, MONOS ([5]; P97 Pyelonephritis) | aberrant enzyme activity, MONOS ([5]; P99 Viral Syndrome) | aberrant enzyme activity, MONOS ([5]; P102 UTI) | aberrant enzyme activity, GRANS ([6]; P88 Enteritis) | aberrant enzyme activity, GRANS ([6]; P95 Viral Syndrome) | aberrant enzyme activity, GRANS ([6]; P96 Viral Syndrome) | aberrant enzyme activity, GRANS ([6]; P97 Pyelonephritis) | aberrant enzyme activity, GRANS ([6]; P99 Viral Syndrome) | aberrant enzyme activity, GRANS ([6]; P102 UTI)
- (>0.25 Decrease over normal range): aberrant enzyme activity, LYMPHS ([4]; P96 Viral Syndrome)
54.29: NORMAL LEUKOCYTE ENZYME ACTIVITY LYMPHS Mean [1]

N=C(N)NCCC[C@H](N)C(=O)NCC(=O)N[C@@H](CCC(=O)O)C(=O)N[C@@H](CO)C(=O)Nc1ccc2c(c1)Oc1cc(NC(=O)[C@H](CO)NC(=O)[C@H](CCC(=O)O)NC(=O)CNC(=O)[C@@H](N)CCCNC(=N)N)ccc1C21OC(=O)c2ccccc21 (stereo partly drawn) [RGES, (Arg-Gly-Glu-Ser)2 Rho 110] (I: H-RGES / II: H-RGES; linker I:C-II:C via Rhodamine110)
+ (>0.25 Increase over normal range): aberrant enzyme activity, LYMPHS ([4]; P96 Viral Syndrome) | aberrant enzyme activity, MONOS ([5]; P92 Adenitis) | aberrant enzyme activity, GRANS ([6]; P89 Viral Stomatitis) | aberrant enzyme activity, GRANS ([6]; P92 Adenitis)
3.96: NORMAL LEUKOCYTE ENZYME ACTIVITY GRANS Mean [2]
8.37: NORMAL LEUKOCYTE ENZYME ACTIVITY MONOS Mean [7]
- (>0.25 Decrease over normal range): aberrant enzyme activity, MONOS ([5]; P88 Enteritis) | aberrant enzyme activity, MONOS ([5]; P101 Fever -- Unknown Origin)
.smallcircle.: aberrant enzyme activity, LYMPHS ([4]; P88 Enteritis) | aberrant enzyme activity, LYMPHS ([4]; P89 Viral Stomatitis) | aberrant enzyme activity, LYMPHS ([4]; P92 Adenitis) | aberrant enzyme activity, LYMPHS ([4]; P95 Viral Syndrome) | aberrant enzyme activity, LYMPHS ([4]; P97 Pyelonephritis) | aberrant enzyme activity, LYMPHS ([4]; P99 Viral Syndrome) | aberrant enzyme activity, LYMPHS ([4]; P101 Fever -- Unknown Origin) | aberrant enzyme activity, LYMPHS ([4]; P102 UTI) | aberrant enzyme activity, LYMPHS ([4]; P103 Viral Syndrome) | aberrant enzyme activity, MONOS ([5]; P89 Viral Stomatitis) | aberrant enzyme activity, MONOS ([5]; P95 Viral Syndrome) | aberrant enzyme activity, MONOS ([5]; P96 Viral Syndrome) | aberrant enzyme activity, MONOS ([5]; P97 Pyelonephritis) | aberrant enzyme activity, MONOS ([5]; P99 Viral Syndrome) | aberrant enzyme activity, MONOS ([5]; P102 UTI) | aberrant enzyme activity, MONOS ([5]; P103 Viral Syndrome) | aberrant enzyme activity, GRANS ([6]; P88 Enteritis) | aberrant enzyme activity, GRANS ([6]; P95 Viral Syndrome) | aberrant enzyme activity, GRANS ([6]; P96 Viral Syndrome) | aberrant enzyme activity, GRANS ([6]; P97 Pyelonephritis) | aberrant enzyme activity, GRANS ([6]; P99 Viral Syndrome) | aberrant enzyme activity, GRANS ([6]; P101 Fever -- Unknown Origin) | aberrant enzyme activity, GRANS ([6]; P102 UTI) | aberrant enzyme activity, GRANS ([6]; P103 Viral Syndrome)
